Measurements from patent US12673961B2 (Agios Pharmaceuticals, Inc., priority 2022, dated 2026).

biological target: T1, human PAH with the R408W mutation (Homo sapiens, UniProt P00439, R408W); test: Cell Based Phenylalanine Flux Assay; settings: A375 cells expressing human R408W PAH; 24 hrs with compound, then sepiapterin and 13C9,15N-Phenylalanine for 4 hours; 13C-Tyrosine by LC-MS; average where tested multiple times; read-out: AC50;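 note: Ten-point dose curve from 2-fold serial dilutions, run in duplicate at 0.5% DMSO final, tracer step used 20 µM sepiapterin and 800 µM labeled phenylalanine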
T1 construct: expressed in transfected cells
T1 sequence (P00439 1-452 R408W): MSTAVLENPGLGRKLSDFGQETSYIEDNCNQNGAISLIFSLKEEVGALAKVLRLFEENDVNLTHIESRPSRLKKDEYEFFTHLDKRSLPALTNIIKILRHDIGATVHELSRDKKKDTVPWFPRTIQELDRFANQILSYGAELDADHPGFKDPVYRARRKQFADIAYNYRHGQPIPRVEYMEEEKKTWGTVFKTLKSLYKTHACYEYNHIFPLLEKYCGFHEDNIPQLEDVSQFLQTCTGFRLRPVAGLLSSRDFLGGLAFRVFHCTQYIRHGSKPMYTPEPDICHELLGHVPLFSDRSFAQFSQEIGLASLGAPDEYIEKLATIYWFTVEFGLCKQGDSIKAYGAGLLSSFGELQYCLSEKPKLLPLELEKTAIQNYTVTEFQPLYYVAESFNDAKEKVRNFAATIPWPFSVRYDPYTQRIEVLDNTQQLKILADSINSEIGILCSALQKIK
Description: Compounds were resuspended in DMSO, and 2-fold serial dilutions were performed to generate a 10-point dose curve. Compounds were added to plated cells in a total volume of 100 μl, and a final DMSO concentration of 0.5%. Each compound was tested in duplicate. Following compound addition, cells were placed in a 5% CO2, 37° C. tissue culture incubator for 24 hrs. […] 20 μM sepiapterin and 800 μM 13C9,15N-Phenylalanine were added. After 4 hours, cell media was removed. An aliquot of 10 μl of cell media was combined with 200 μl of extraction buffer (80% acetonitrile/20% H2O) for each well. Determination of ^13C-Tyrosine concentration was assessed by liquid chromatography mass spectrometry.
Where a compound was tested multiple times, the average value of the tests is reported.

AC50	SMILES
< 500 nM	Cc1cccc(-c2nnc(C(=O)N3CCc4[nH]cnc4[C@H]3c3cc4c(Cl)cccn4n3)o2)n1 [Example 1431, (S)-(4-(4-chloropyrazolo [1,5-a]pyridin-2-yl)-6,7-dihydro-1H-imidazo[4,5-c]pyridin-5(4H)-yl)(5-(6-methylpyridin-2-yl)-1,3,4-oxadiazol-2-yl)methanone]
< 500 nM	Cc1cccc(-c2nnc(C(=O)N3CCc4[nH]cnc4[C@H]3c3cc4c(C(F)(F)F)cccn4n3)o2)n1 [Example 1433, (S)-(5-(6-methylpyridin-2-yl)-1,3,4-oxadiazol-2-yl)(4-(4-(trifluoromethyl)pyrazolo [1,5-a]pyridin-2-yl)-6,7-dihydro-1H-imidazo[4,5-c]pyridin-5(4H)-yl)methanone]
500 to 1000 nM	Cn1ccc(-c2ccc3c(C(=O)N4CCc5[nH]cnc5[C@H]4c4cc5ccccn5n4)cnn3c2)n1 [Example 1434, (S)-(6-(1-methyl-1H-pyrazol-3-yl)pyrazolo[1,5-a]pyridin-3-yl)(4-(pyrazolo [1,5-a]pyridin-2-yl)-6,7-dihydro-1H-imidazo[4,5-c]pyridin-5(4H)-yl)methanone]
1000 to 5000 nM	Cn1ccc(-c2ccc3c(C(=O)N4CCc5[nH]cnc5[C@@H]4c4cc5ccccn5n4)cnn3c2)n1 [Example 1435, (R)-(6-(1-methyl-1H-pyrazol-3-yl)pyrazolo[1,5-a]pyridin-3-yl)(4-(pyrazolo [1,5-a]pyridin-2-yl)-6,7-dihydro-1H-imidazo[4,5-c]pyridin-5(4H)-yl)methanone]
500 to 1000 nM	CC(C)(F)c1nnc(C(=O)N2CCc3[nH]cnc3[C@H]2c2cc3cccc(C(F)F)n3n2)o1 [Example 1436, (S)-(4-(7-(difluoromethyl)pyrazolo[1,5-a]pyridin-2-yl)-6,7-dihydro-1H-imidazo[4,5-c]pyridin-5(4H)-yl)(5-(2-fluoropropan-2-yl)-1,3,4-oxadiazol-2-yl)methanone]
1000 to 5000 nM	CC(C)(F)c1nnc(C(=O)N2CCc3[nH]cnc3[C@@H]2c2cc3cccc(C(F)F)n3n2)o1 [Example 1437, (R)-(4-(7-(difluoromethyl)pyrazolo[1,5-a]pyridin-2-yl)-6,7-dihydro-1H-imidazo[4,5-c]pyridin-5(4H)-yl)(5-(2-fluoropropan-2-yl)-1,3,4-oxadiazol-2-yl)methanone]
1000 to 5000 nM	O=C(c1nnc(-c2ccn(C(F)F)n2)o1)N1CCc2[nH]cnc2[C@@H]1c1cc2cccc(C(F)F)n2n1 [Example 1443, (R)-(5-(1-(difluoromethyl)-1H-pyrazol-3-yl)-1,3,4-oxadiazol-2-yl)(4-(7-(difluoromethyl)pyrazolo[1,5-a]pyridin-2-yl)-6,7-dihydro-1H-imidazo[4,5-c]pyridin-5(4H)-yl)methanone]
500 to 1000 nM	Cc1cccc2cc([C@@H]3c4nc[nH]c4CCN3C(=O)c3nnc(-c4cnn(C(F)(F)F)c4)o3)nn12 [Example 1446, (S)-(4-(7-methylpyrazolo [1,5-a]pyridin-2-yl)-6,7-dihydro-1H-imidazo[4,5-c]pyridin-5(4H)-yl)(5-(1-(trifluoromethyl)-1H-pyrazol-4-yl)-1,3,4-oxadiazol-2-yl)methanone]
> 5000 nM	CC(C)c1nnc(C(=O)N2CCc3[nH]cnc3[C@@H]2c2cc3c(F)cccn3n2)o1 [Example 1453, (R)-(4-(4-fluoropyrazolo [1,5-a]pyridin-2-yl)-6,7-dihydro-1H-imidazo[4,5-c]pyridin-5(4H)-yl)(5-isopropyl-1,3,4-oxadiazol-2-yl)methanone]
< 500 nM	Cc1nn(C)cc1-c1nnc(C(=O)N2CCc3[nH]cnc3[C@H]2c2cc3c(C(F)F)cccn3n2)o1 [Example 1466, (S)-(4-(4-(difluoromethyl)pyrazolo[1,5-a]pyridin-2-yl)-6,7-dihydro-1H-imidazo[4,5-c]pyridin-5(4H)-yl)(5-(1,3-dimethyl-1H-pyrazol-4-yl)-1,3,4-oxadiazol-2-yl)methanone]
1000 to 5000 nM	Cc1cccc(-c2nnc(C(=O)N3CCc4[nH]cnc4[C@@H]3c3cc4c(F)cccn4n3)o2)n1 [Example 1471, (R)-(4-(4-fluoropyrazolo [1,5-a]pyridin-2-yl)-6,7-dihydro-1H-imidazo[4,5-c]pyridin-5(4H)-yl)(5-(6-methylpyridin-2-yl)-1,3,4-oxadiazol-2-yl)methanone]
< 500 nM	O=C(c1nnc(-c2ccn(C(F)(F)F)n2)o1)N1CCc2[nH]cnc2[C@H]1c1cc2c(Cl)cccn2n1 [Example 1476, (S)-(4-(4-chloropyrazolo [1,5-a]pyridin-2-yl)-6,7-dihydro-1H-imidazo[4,5-c]pyridin-5(4H)-yl)(5-(1-(trifluoromethyl)-1H-pyrazol-3-yl)-1,3,4-oxadiazol-2-yl)methanone]
1000 to 5000 nM	Cc1cccn2nc([C@H]3c4nc[nH]c4CCN3C(=O)c3nnc(-c4ccn(C(F)(F)F)n4)o3)cc12 [Example 1479, (R)-(4-(4-methylpyrazolo [1,5-a]pyridin-2-yl)-6,7-dihydro-1H-imidazo[4,5-c]pyridin-5(4H)-yl)(5-(1-(trifluoromethyl)-1H-pyrazol-3-yl)-1,3,4-oxadiazol-2-yl)methanone]
< 500 nM	O=C(c1nnc(-c2ccn(C(F)(F)F)n2)o1)N1CCc2[nH]cnc2[C@H]1c1cc2c(F)cccn2n1 [Example 1482, (S)-(4-(4-fluoropyrazolo[1,5-a]pyridin-2-yl)-6,7-dihydro-1H-imidazo[4,5-c]pyridin-5(4H)-yl)(5-(1-(trifluoromethyl)-1H-pyrazol-3-yl)-1,3,4-oxadiazol-2-yl)methanone]
1000 to 5000 nM	O=C(c1nnc(-c2ccn(C(F)(F)F)n2)o1)N1CCc2[nH]cnc2[C@@H]1c1cc2c(F)cccn2n1 [Example 1483, (R)-(4-(4-fluoropyrazolo [1,5-a]pyridin-2-yl)-6,7-dihydro-1H-imidazo[4,5-c]pyridin-5(4H)-yl)(5-(1-(trifluoromethyl)-1H-pyrazol-3-yl)-1,3,4-oxadiazol-2-yl)methanone]
< 500 nM	CC(C)c1nnc(C(=O)N2CCc3[nH]cnc3[C@H]2c2cc3c(Cl)cccn3n2)o1 [Example 1484, (S)-(4-(4-chloropyrazolo [1,5-a]pyridin-2-yl)-6,7-dihydro-1H-imidazo[4,5-c]pyridin-5(4H)-yl)(5-isopropyl-1,3,4-oxadiazol-2-yl)methanone]
1000 to 5000 nM	CC(C)c1nnc(C(=O)N2CCc3[nH]cnc3[C@@H]2c2cc3cccc(Cl)n3n2)o1 [Example 1489, (R)-(4-(7-chloropyrazolo [1,5-a]pyridin-2-yl)-6,7-dihydro-1H-imidazo[4,5-c]pyridin-5(4H)-yl)(5-isopropyl-1,3,4-oxadiazol-2-yl)methanone]
500 to 1000 nM	Cc1cccc2cc([C@@H]3c4nc[nH]c4CCN3C(=O)c3nnc(C(C)C)o3)nn12 [Example 1490, (S)-(5-isopropyl-1,3,4-oxadiazol-2-yl)(4-(7-methylpyrazolo[1,5-a]pyridin-2-yl)-6,7-dihydro-1H-imidazo[4,5-c]pyridin-5(4H)-yl)methanone]
500 to 1000 nM	O=C(c1nnc(-c2cnn(C(F)(F)F)c2)o1)N1CCc2[nH]cnc2[C@H]1c1cc2cccc(C(F)F)n2n1 [Example 1502, (S)-(4-(7-(difluoromethyl)pyrazolo[1,5-a]pyridin-2-yl)-6,7-dihydro-1H-imidazo [4,5-c]pyridin-5(4H)-yl)(5-(1-(trifluoromethyl)-1H-pyrazol-4-yl)-1,3,4-oxadiazol-2-yl)methanone]
> 5000 nM	O=C(c1nnc(-c2cnn(C(F)(F)F)c2)o1)N1CCc2[nH]cnc2[C@@H]1c1cc2c(Cl)cccn2n1 [Example 1505]
